Tests used:
[1] = test system: rat dorsal root ganglion (DRG) cells; assay: Rat dorsal root ganglion (DRG) excitability response to electrical field stimulation; assay type: cell-based; conditions: adult rat DRG cells, Ca5 Ca2+ indicator, six concentrations, highest typically 30 μM, read-out: Scoring: EC50, modulation of rat DRG excitability
Protocol: Rat Dorsal Root Ganglion Excitability Response of Representative Compounds Dorsal root ganglions (DRGs) were dissected from adult rats. The tissue was processed, and cells were seeded into cell culture plates (48 center wells of one quadrant in 384-well plates) and cultured for 2 days prior to Electrical field stimulation (EFS). To visualize the neuronal excitability response, intracellular Ca^+2 transients were monitored using the Ca^+2 indicator, Ca5. Ca5 was added to the cultures 1 h prior to EFS. Representative compounds of the invention (i.e., test compounds) and reference compound, tetracaine, were added in concentration-response format encompassing six concentrations, performed in duplicate. The highest concentration tested was typically 30 μM with 1 in 3 dilutions generating the subsequent concentrations.
Effects on DRG excitability by the test compounds and standard were evaluated using four EFS protocols as disclosed in Table 2.
Experimental results were performed using two seperate sets of plates using separate test compound and standard dilutions, to provide n=2. In the first set of experiments, compounds were added 24 h prior to EFS to increase the possibility to also detect more long-term compound effects. In the second set of experiments the compounds were added directly prior to EFS. Excitability response to EFS was analyzed as the average fluorescence ratio (peak/baseline) change per well. All plates were evaluated using high content imaging equipment post-EFS, imaging the Ca5 background staining to detect any possibile compound-related toxic effects.
Average response by the reference compound, tetracaine, was 4.05 μM.

[2] = Metabolism by human liver microsomes; assay type: in vitro ADME; conditions: human liver microsomes 1 mg/mL protein, 10 μM, in the presence of NADPH, LC-MS/MS
Protocol: Representative compounds of the invention (i.e., test compounds) and the positive control, 7-ethoxycoumarin, were prepared as stock solutions at 10 mM in DMSO and eventually diluted to 10 μM in the test plate, with an appropriate amount of acetonitrile and tris HCl buffer. Final DMSO and acetonitrile concentrations were […] and 0.5% respectively. NADPH was prepared in tris HCl buffer to a stock of 10 mM. A frozen aliquot of liver microsomes was retrieved from the freezer (−80° C.) and thawed by placing the tube on wet ice. After thawing, the tubes were gently mixed and the required amount, transferred to tris HCl buffer. Test compounds or positive control were pre-incubated, separately, for 10 minutes, with liver microsomes (1 mg/mL protein), at 37° C., in 100 mM Tris HCl at pH 7.5. After preincubation the reaction was started by adding 1 mM NADPH (pre-equilibrated to 30° C.) and the reaction allowed to proceed for 60 minutes. At 60 minutes, a 50 μL aliquot was removed and quenched with 200 uL of acetonitrile containing a mixture of internal standards (Tolbutamide (500 ng/mL) and Telmistartan (500 ng/mL)) and vortexed then centrifuged at 4000 rpm for 10 minutes (Eppendorf 5810R). The supernatant was transferred to a 96 well plate for LC-MS/MS analysis.
An LC-MS/MS method was devised for the test compounds and the control, using a AB Sciex API 4000 system coupled to a NEXAR™ UHPLC (Shimadzu) system. Analytes were separated on a Phenomenex Kinetex C18 column (50×2.1 mm, 5 μm) using a gradient that was appropriate for each compound, at a flow rate of 1 ml/minute, utilizing a mobile phase of 0.1% formic acid in MILLI-Q™ water (A) and 0.1% formic acid in acetonitrile (B). The MS instrument was operated in positive mode (ESI+)/negative (ESI−). The multiple reaction monitoring (MRM) transition for test and control compounds was used for the LC-MS/MS analysis. MRM transitions for control compound 7-ethoxycoumarinm were Quadropole 1: 191.0, Quadropole 3:163.0, dwell time: 75 msec, using curtain gas settings of 5 V, ion-spray voltage of 5500 V, temperature of 50° C. and gas settings for nebulizer and auxiliary set to 30 and 40 psi, respectively. The interface heater was kept on. Entrance potential and collision cell exit potential were varied to tune for a specific compound.
Using a suitable LC-MS/MS method, the percentage of drug remaining at 60 minutes ([…]) was assessed by comparing the average analyte to internal standard area ratio at 60 minutes to the average analyte to internal standard area ratio at 0 time control, as a percentage, from a 5 to 10 μL sample injection.
According to the above assay, the test compounds listed in Table 7 below were active in the Human liver microsome assay at 10 μM and the % of drug remaining after 60 minutes (PDR60), in the presence of NADPH, was assessed by LC-MS/MS. Average PDR60 for the standard compound, 7-ethoxycoumarin was <=65% in the presence of NADPH. Scoring for the test compounds, in the presence of NADPH, was as follows: “A” represents a PDR60 of 81 to 100%, “B” represents a PDR60 of 61 to 80%, “C” represents a PDR60 of 31 to 60% and “D” represents a PDR60 of 0 to 30%.

| Scoring: % of drug remaining after 60 minutes (PDR60) [2] | SMILES | EC50 [1] |
| --- | --- | --- |
| C (“C” represents a PDR60 of 31 to 60%) | C=C1CC[C@H]2[C@H](CN)[C@@H]([C@@]3(C)Cc4cn(-c5ccc(Oc6ccccc6)cc5)nc4C[C@@H]3CO)CC[C@]12C [Ia-29, ((5R,6S)-5-((3aS,4R,5S,7aS)-4-(aminomethyl)-7a-methyl-1-methyleneoctahydro-1H-inden-5-yl)-5-methyl-2-(4-phenoxyphenyl)-4,5,6,7-tetrahydro-2H-indazol-6-yl)methanol] | < 2000 nM |
| A (“A” represents a PDR60 of 81 to 100%) | COc1ccc(Cn2cc3c(n2)C[C@H](CO)[C@@](C)([C@H]2CC[C@]4(C)[C@@H](C)CC[C@H]4[C@@H]2CN)C3)cc1 [Ia-52, ((5R,6S)-5-((1S,3aS,4S,5S,7aR)-4-(aminomethyl)-1,7a-dimethyloctahydro-1H-inden-5-yl)-2-(4-methoxybenzyl)-5-methyl-4,5,6,7-tetrahydro-2H-indazol-6-yl)methanol] | < 2000 nM |
| A (“A” represents a PDR60 of 81 to 100%) | C=C1CC[C@H]2[C@H](CN)[C@@H]([C@@]3(C)Cc4cnn(-c5ccc(Oc6ccc(C(=O)O)cc6)cc5)c4C[C@@H]3CO)CC[C@]12C [Ia-36, 4-(4-((5R,6S)-5-((3aS,4R,5S,7aS)-4-(aminomethyl)-7a-methyl-1-methyleneoctahydro-1H-inden-5-yl)-6-(hydroxymethyl)-5-methyl-4,5,6,7-tetrahydro-1H-indazol-1-yl)phenoxy)benzoic acid] | > 15000 nM |
| B (“B” represents a PDR60 of 61 to 80%) | C=C1CC[C@H]2[C@H](CN)[C@@H]([C@@]3(C)Cc4cnn(-c5ccc(Oc6ccccc6)cc5)c4C[C@@H]3CO)CC[C@]12C [Ia-28, ((5R,6S)-5-((3aS,4R,5S,7aS)-4-(aminomethyl)-7a-methyl-1-methyleneoctahydro-1H-inden-5-yl)-5-methyl-1-(4-phenoxyphenyl)-4,5,6,7-tetrahydro-1H-indazol-6-yl)methanol] | < 2000 nM |

Further lines, the molecule ahead of its results:

| SMILES | Scoring: % of drug remaining after 60 minutes (PDR60) [2] | EC50 [1] |
| --- | --- | --- |
| C=C1CC[C@H]2[C@H](CN)[C@@H]([C@@]3(C)Cc4cnn(-c5ccc(F)c(F)c5)c4C[C@@H]3CO)CC[C@]12C [Ia-22, ((5R,6S)-5-((3aS,4R,5S,7aS)-4-(aminomethyl)-7a-methyl-1-methyleneoctahydro-1H-inden-5-yl)-1-(3,4-difluorophenyl)-5-methyl-4,5,6,7-tetrahydro-1H-indazol-6-yl)methanol] | D (“D” represents a PDR60 of 0 to 30%) | < 2000 nM |
| C=C1CC[C@H]2[C@H](CN)[C@@H]([C@@]3(C)Cc4cnn(-c5ccc(Oc6ccc(F)cc6)cc5)c4C[C@@H]3CO)CC[C@]12C [Ia-24, ((5R,6S)-5-((3aS,4R,5S,7aS)-4-(aminomethyl)-7a-methyl-1-methyleneoctahydro-1H-inden-5-yl)-1-(4-(4-fluorophenoxy)phenyl)-5-methyl-4,5,6,7-tetrahydro-1H-indazol-6-yl)methanol] | B (“B” represents a PDR60 of 61 to 80%) | < 2000 nM |
| C=C1CC[C@H]2[C@H](CN)[C@@H]([C@@]3(C)Cc4cnn(-c5ncc(F)cn5)c4C[C@@H]3CO)CC[C@]12C [Ia-26, ((5R,6S)-5-((3aS,4R,5S,7aS)-4-(aminomethyl)-7a-methyl-1-methyleneoctahydro-1H-inden-5-yl)-1-(5-fluoropyrimidin-2-yl)-5-methyl-4,5,6,7-tetrahydro-1H-indazol-6-yl)methanol] | D (“D” represents a PDR60 of 0 to 30%) | 6000 to 15000 nM |
| C=C1CC[C@H]2[C@H](CN)[C@@H]([C@@]3(C)Cc4cn(-c5ccc(OC)cc5)nc4C[C@@H]3CO)CC[C@]12C [Ia-15, ((5R,6S)-5-((3aS,4R,5S,7aS)-4-(aminomethyl)-7a-methyl-1-methyleneoctahydro-1H-inden-5-yl)-2-(4-methoxyphenyl)-5-methyl-4,5,6,7-tetrahydro-2H-indazol-6-yl)methanol] | B (“B” represents a PDR60 of 61 to 80%) | 6000 to 15000 nM |
| C=C1CC[C@H]2[C@H](CN)[C@@H]([C@@]3(C)Cc4cnn(-c5ccc(C(=O)c6ccccc6)cc5)c4C[C@@H]3CO)CC[C@]12C [Ia-20, (4-((5R,6S)-5-((3aS,4R,5S,7aS)-4-(aminomethyl)-7a-methyl-1-methyleneoctahydro-1H-inden-5-yl)-6-(hydroxymethyl)-5-methyl-4,5,6,7-tetrahydro-1H-indazol-1-yl)phenyl)(phenyl)methanone] | B (“B” represents a PDR60 of 61 to 80%) | < 2000 nM |
| C=C1CC[C@H]2[C@H](CN)[C@@H]([C@@]3(C)Cc4cnn(Cc5ccc(F)cc5)c4C[C@@H]3CO)CC[C@]12C [Ia-18, ((5R,6S)-5-((3aS,4R,5S,7aS)-4-(aminomethyl)-7a-methyl-1-methyleneoctahydro-1H-inden-5-yl)-1-(4-fluorobenzyl)-5-methyl-4,5,6,7-tetrahydro-1H-indazol-6-yl)methanol] |  | < 2000 nM |
| C=C1CC[C@H]2[C@H](CN)[C@@H]([C@@]3(C)Cc4cn(-c5ncc(F)cn5)nc4C[C@@H]3CO)CC[C@]12C [Ia-27, ((5R,6S)-5-((3aS,4R,5S,7aS)-4-(aminomethyl)-7a-methyl-1-methyleneoctahydro-1H-inden-5-yl)-2-(5-fluoropyrimidin-2-yl)-5-methyl-4,5,6,7-tetrahydro-2H-indazol-6-yl)methanol] | C (“C” represents a PDR60 of 31 to 60%) | 6000 to 15000 nM |
| C=C1CC[C@H]2[C@H](CN)[C@@H]([C@@]3(C)Cc4cnn(-c5ccc(F)cc5)c4C[C@@H]3CO)CC[C@]12C [Ia-12, ((5R,6S)-5-((3aS,4R,5S,7aS)-4-(aminomethyl)-7a-methyl-1-methyleneoctahydro-1H-inden-5-yl)-1-(4-fluorophenyl)-5-methyl-4,5,6,7-tetrahydro-1H-indazol-6-yl)methanol] | D (“D” represents a PDR60 of 0 to 30%) | < 2000 nM |
| C[C@H]1CC[C@H]2[C@H](CN)[C@@H]([C@@]3(C)Cc4cnn(-c5ccc(F)cc5)c4C[C@@H]3CO)CC[C@]12C [Ia-47, ((5R,6S)-5-((1S,3aS,4S,5S,7aR)-4-(aminomethyl)-1,7a-dimethyloctahydro-1H-inden-5-yl)-1-(4-fluorophenyl)-5-methyl-4,5,6,7-tetrahydro-1H-indazol-6-yl)methanol] |  | < 2000 nM |

— US11773108B2, “Indene derivatives useful in treating pain and inflammation” (TARO PHARMACEUTICALS INC., priority 2018, dated 2023)
